Measured values from paper PMC9817970 (Cancers, 2022).

Tests used:
[1] = test system: parental Ba/F3 cells; assay: Anti-proliferative activity on Ba/F3 cells; assay type: cell-based; conditions: Mus musculus, BaF3
Protocol: (§1) GIST-T1 (Cosmobio, Tokyo, Japan, # PMC-GIST01C-COS) cells were cultured in DMEM (Welgene, # LM001-05) and HMC1.2 (Merck, Darmstadt, Germany, # SCC062) cells were cultured in IMDM (Welgene, # LM004-01). Parental Ba/F3 (DSMZ, Braunschweig, Germany, # ACC300) cells were cultured in RPMI (Welgene, # LM011-51) with 10 ng IL-3/mL (Enzo, # ALX-201-821). The culture media was supplemented with 10% fetal bovine serum and 1% penicillin/streptomycin solution. The cells were maintained in a humidified atmosphere containing 5% CO2 at 37 °C.
(§2) Cells (GIST-T1: 5.0 × 10^3; HMC1.2: 1 × 10^4) were seeded in 96-well plates. Each compound was treated in each well at 10 dose points of 3-fold serial dilution. After treatment with each compound for 72 h, CellTiter-Glo solution (Promega, # G7572) was added to each well. Anti-proliferation activity was measured the luminescence using a 96-well plate reader (EnVision 2013).

[2] = test system: c-KIT D816V Ba/F3 cells; assay: Cell cycle arrest analysis (PI flow cytometry); assay type: cell-based; conditions: c-KIT D816V Ba/F3, 0.5 μM, 24 h
[3] = test system: HMC1.2 cells; assay: Cell viability assay (CellTiter-Glo); assay type: cell-based, human; conditions: Homo sapiens, 72 h
Protocol: as §1, §2

[4] = biological target: T1, CAMK2b (Homo sapiens, UniProt Q13554); assay: Kinase panel profiling; assay type: biochemical; conditions: 10 μM ATP
T1 construct: purchased Reaction Biology Corp
Protocol: (§3) Kinase panel profiling was conducted by Reaction Biology Corp. (San Diego, CA, USA). A single dose (1.0 μM) of 6r was tested against 371 recombinant human kinases in the presence of 10 μM ATP.

[5] = biological target: T2, PKN1/PRK1 (Homo sapiens, UniProt Q16512); assay: Kinase panel profiling; assay type: biochemical; conditions: 10 μM ATP
T2 construct: purchased Reaction Biology Corp
Protocol: as §3

[6] = biological target: T3, ARK5/NUAK1 (Homo sapiens, UniProt O60285); assay: Kinase panel profiling; assay type: biochemical; conditions: 10 μM ATP
T3 construct: purchased Reaction Biology Corp
T3 sequence (O60285 whole entry): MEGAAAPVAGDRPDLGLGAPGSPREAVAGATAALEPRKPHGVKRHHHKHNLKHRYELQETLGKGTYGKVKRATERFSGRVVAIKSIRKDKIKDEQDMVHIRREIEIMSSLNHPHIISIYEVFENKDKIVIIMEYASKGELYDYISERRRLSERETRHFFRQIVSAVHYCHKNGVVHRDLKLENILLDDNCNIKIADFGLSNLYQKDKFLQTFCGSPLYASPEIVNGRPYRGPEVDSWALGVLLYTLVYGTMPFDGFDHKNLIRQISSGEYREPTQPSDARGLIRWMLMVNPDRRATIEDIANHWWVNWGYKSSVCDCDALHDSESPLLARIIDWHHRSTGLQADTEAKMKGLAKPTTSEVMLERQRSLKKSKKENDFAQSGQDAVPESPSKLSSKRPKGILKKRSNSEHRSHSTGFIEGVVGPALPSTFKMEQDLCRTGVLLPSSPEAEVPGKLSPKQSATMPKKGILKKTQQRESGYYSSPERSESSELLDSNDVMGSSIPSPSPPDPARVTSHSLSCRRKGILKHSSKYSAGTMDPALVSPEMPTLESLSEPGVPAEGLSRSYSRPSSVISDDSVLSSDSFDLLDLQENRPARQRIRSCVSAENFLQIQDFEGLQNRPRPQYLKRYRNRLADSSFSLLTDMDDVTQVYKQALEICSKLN
Protocol: as §3

[7] = biological target: T4, DCAMKL1 (Homo sapiens, UniProt O15075); assay: Kinase panel profiling; assay type: biochemical; conditions: 10 μM ATP
T4 construct: purchased Reaction Biology Corp
T4 sequence (O15075 whole entry): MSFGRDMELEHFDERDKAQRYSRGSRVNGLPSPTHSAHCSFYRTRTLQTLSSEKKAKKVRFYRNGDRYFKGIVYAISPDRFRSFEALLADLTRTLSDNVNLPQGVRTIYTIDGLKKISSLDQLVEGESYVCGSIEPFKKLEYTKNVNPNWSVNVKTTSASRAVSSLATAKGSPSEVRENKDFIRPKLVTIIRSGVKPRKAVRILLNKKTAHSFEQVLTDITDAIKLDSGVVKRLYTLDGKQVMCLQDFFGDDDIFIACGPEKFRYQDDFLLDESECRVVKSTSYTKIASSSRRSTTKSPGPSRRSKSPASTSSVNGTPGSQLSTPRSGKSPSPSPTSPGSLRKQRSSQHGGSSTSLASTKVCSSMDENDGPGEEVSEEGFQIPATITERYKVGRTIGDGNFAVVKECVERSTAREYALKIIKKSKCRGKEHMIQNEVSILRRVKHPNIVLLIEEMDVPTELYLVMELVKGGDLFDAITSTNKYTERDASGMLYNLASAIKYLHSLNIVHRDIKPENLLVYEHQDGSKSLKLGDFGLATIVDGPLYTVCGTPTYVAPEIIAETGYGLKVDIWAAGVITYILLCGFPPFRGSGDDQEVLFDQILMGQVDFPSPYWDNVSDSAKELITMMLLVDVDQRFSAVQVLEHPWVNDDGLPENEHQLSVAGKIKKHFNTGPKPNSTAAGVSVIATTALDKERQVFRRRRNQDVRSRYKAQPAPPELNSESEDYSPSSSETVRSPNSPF
Protocol: as §3

[8] = biological target: T5, ERK1 (Homo sapiens, UniProt P27361); assay: Kinase panel profiling; assay type: biochemical; conditions: 10 μM ATP
T5 construct: purchased Reaction Biology Corp
Protocol: as §3

[9] = biological target: T6, ROCK1 (Homo sapiens, UniProt Q13464); assay: Kinase panel profiling; assay type: biochemical; conditions: 10 μM ATP
T6 construct: purchased Reaction Biology Corp
Protocol: as §3

[10] = biological target: T7, ZAP70 (Homo sapiens, UniProt P43403); assay: Kinase panel profiling; assay type: biochemical; conditions: 10 μM ATP
T7 construct: purchased Reaction Biology Corp
T7 sequence (P43403 whole entry): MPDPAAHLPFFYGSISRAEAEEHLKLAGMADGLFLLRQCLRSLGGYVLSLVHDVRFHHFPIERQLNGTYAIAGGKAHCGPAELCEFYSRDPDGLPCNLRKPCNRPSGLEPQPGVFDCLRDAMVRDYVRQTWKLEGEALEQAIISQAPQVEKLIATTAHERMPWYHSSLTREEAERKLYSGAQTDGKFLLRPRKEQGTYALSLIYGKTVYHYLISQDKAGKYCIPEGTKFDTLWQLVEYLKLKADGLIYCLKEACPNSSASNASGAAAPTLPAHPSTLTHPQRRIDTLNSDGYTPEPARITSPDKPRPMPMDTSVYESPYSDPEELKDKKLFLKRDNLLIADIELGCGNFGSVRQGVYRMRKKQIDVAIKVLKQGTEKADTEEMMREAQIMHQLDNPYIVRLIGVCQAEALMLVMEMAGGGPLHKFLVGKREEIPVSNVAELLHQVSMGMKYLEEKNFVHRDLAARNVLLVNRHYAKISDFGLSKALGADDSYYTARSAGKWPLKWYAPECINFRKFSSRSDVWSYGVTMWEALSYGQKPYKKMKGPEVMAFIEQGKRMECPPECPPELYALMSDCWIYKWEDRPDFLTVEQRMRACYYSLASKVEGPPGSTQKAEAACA
Protocol: as §3

[11] = biological target: T8, IKKa/CHUK (Homo sapiens, UniProt O15111); assay: Kinase panel profiling; assay type: biochemical; conditions: 10 μM ATP
T8 construct: purchased Reaction Biology Corp
Protocol: as §3

[12] = biological target: T9, TRKC (Homo sapiens, UniProt Q16288); assay: Kinase panel profiling; assay type: biochemical; conditions: 10 μM ATP
T9 construct: purchased Reaction Biology Corp
T9 sequence (Q16288 32-839): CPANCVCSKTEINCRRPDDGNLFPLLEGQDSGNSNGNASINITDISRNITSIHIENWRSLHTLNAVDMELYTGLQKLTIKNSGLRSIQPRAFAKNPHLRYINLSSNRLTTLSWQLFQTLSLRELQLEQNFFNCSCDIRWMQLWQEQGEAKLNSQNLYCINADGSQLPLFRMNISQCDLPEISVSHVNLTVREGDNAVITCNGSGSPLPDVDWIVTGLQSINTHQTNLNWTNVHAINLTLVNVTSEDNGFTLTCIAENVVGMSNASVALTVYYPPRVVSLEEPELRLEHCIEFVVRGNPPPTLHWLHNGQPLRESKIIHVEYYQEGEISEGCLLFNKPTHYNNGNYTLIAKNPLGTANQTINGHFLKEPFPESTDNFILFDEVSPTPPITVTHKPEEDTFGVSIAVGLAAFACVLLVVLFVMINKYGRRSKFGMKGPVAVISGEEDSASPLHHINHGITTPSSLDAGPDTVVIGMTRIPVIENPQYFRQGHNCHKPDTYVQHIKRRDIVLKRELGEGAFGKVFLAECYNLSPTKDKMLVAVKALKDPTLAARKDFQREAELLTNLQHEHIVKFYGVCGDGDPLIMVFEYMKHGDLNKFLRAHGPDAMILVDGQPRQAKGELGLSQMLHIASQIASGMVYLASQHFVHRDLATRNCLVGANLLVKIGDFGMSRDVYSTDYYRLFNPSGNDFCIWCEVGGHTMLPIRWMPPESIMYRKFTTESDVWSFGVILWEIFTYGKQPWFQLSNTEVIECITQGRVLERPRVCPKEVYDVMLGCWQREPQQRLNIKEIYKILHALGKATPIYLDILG
Protocol: as §3

[13] = biological target: T10, CK1a1L (Homo sapiens, UniProt Q8N752); assay: Kinase panel profiling; assay type: biochemical; conditions: 10 μM ATP
T10 construct: purchased Reaction Biology Corp
T10 sequence (Q8N752 whole entry): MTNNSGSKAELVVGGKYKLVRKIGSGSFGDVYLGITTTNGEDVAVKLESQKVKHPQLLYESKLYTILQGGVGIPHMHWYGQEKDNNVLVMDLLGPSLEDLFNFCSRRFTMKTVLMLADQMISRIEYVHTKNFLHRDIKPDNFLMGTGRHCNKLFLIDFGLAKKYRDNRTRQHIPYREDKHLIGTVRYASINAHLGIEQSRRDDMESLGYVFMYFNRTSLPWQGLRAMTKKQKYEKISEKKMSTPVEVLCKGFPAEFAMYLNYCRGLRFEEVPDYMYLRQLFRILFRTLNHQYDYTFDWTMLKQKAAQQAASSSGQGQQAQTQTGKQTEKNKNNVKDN
Protocol: as §3

[14] = biological target: T11, FLT1/VEGFR1 (Homo sapiens, UniProt P17948); assay: Kinase panel profiling; assay type: biochemical; conditions: 10 μM ATP
T11 construct: purchased Reaction Biology Corp
T11 sequence (P17948 27-1338): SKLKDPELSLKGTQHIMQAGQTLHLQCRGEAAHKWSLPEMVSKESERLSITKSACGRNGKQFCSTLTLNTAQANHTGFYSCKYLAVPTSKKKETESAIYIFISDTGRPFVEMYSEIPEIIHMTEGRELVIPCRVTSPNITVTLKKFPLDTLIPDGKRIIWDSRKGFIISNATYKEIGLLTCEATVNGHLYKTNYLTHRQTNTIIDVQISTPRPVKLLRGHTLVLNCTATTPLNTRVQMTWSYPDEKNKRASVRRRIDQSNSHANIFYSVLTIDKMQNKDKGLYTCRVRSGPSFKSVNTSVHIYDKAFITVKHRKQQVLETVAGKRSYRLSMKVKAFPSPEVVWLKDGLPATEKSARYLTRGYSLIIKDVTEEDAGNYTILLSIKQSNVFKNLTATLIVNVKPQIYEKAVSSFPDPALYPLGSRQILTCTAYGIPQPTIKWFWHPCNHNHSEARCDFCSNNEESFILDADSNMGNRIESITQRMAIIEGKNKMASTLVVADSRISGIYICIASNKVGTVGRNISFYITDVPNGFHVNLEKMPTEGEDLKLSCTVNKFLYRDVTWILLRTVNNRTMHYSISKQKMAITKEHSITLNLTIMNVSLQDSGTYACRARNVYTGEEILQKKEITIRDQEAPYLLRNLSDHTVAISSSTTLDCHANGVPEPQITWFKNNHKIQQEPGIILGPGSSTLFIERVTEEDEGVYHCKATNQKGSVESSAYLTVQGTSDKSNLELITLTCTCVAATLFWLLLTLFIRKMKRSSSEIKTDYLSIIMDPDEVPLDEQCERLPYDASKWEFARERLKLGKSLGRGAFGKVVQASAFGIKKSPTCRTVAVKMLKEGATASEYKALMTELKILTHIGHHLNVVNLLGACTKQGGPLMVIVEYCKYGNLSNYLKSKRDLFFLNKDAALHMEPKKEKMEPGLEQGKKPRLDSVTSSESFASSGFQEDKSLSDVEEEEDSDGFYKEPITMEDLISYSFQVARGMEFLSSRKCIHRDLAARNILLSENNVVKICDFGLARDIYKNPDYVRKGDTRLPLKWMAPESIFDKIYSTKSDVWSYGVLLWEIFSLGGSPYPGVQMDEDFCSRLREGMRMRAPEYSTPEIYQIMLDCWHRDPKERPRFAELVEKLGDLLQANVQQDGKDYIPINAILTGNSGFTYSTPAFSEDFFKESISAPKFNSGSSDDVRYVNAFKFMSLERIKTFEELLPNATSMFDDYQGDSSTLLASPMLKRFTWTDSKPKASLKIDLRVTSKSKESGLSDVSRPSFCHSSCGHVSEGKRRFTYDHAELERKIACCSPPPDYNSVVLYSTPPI
Protocol: as §3

[15] = biological target: T12, MRCKa/CDC42BPA (Homo sapiens, UniProt Q5VT25); assay: Kinase panel profiling; assay type: biochemical; conditions: 10 μM ATP
T12 construct: purchased Reaction Biology Corp
Protocol: as §3

[16] = biological target: T13, CDK14/cyclin Y (PFTK1) (Homo sapiens, UniProt O94921); assay: Kinase panel profiling; assay type: biochemical; conditions: 10 μM ATP
T13 construct: purchased Reaction Biology Corp
Protocol: as §3

[17] = biological target: T14, ARAF (Homo sapiens, UniProt P10398); assay: Kinase panel profiling; assay type: biochemical; conditions: 10 μM ATP
T14 construct: purchased Reaction Biology Corp
Protocol: as §3

[18] = biological target: T15, JAK3 (Homo sapiens, UniProt P52333); assay: Kinase panel profiling; assay type: biochemical; conditions: 10 μM ATP
T15 construct: purchased Reaction Biology Corp
Protocol: as §3

[19] = biological target: T16, TTBK1 (Homo sapiens, UniProt Q5TCY1); assay: Kinase panel profiling; assay type: biochemical; conditions: 10 μM ATP
T16 construct: purchased Reaction Biology Corp
Protocol: as §3

[20] = biological target: T17, Aurora A (Homo sapiens, UniProt O14965); assay: Kinase panel profiling; assay type: biochemical; conditions: 10 μM ATP
T17 construct: purchased Reaction Biology Corp
Protocol: as §3

[21] = biological target: T18, GSK3a (Homo sapiens, UniProt P49840); assay: Kinase panel profiling; assay type: biochemical; conditions: 10 μM ATP
T18 construct: purchased Reaction Biology Corp
T18 sequence (P49840 whole entry): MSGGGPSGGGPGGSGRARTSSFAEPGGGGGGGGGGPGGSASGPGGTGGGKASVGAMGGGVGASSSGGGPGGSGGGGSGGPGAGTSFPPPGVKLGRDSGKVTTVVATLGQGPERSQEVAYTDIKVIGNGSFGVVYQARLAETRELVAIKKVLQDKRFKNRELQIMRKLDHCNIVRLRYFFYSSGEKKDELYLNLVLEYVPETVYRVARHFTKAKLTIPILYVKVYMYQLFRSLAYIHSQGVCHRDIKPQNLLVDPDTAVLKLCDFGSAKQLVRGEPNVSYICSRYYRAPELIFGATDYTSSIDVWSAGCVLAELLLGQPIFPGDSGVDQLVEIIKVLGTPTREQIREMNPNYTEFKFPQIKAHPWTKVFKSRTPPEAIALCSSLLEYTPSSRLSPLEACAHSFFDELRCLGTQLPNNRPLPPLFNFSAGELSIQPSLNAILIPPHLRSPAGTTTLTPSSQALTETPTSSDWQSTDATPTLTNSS
Protocol: as §3

[22] = biological target: T19, ERBB4/HER4 (Homo sapiens, UniProt Q15303); assay: Kinase panel profiling; assay type: biochemical; conditions: 10 μM ATP
T19 construct: purchased Reaction Biology Corp
Protocol: as §3

[23] = biological target: T20, c-Src (Homo sapiens, UniProt P12931); assay: Kinase panel profiling; assay type: biochemical; conditions: 10 μM ATP
T20 construct: purchased Reaction Biology Corp
Protocol: as §3

[24] = test system: phosphorylated c-KIT (Tyr703) and downstream signaling in GIST-T1 cells; assay: Western blot of c-KIT signaling; assay type: cell-based, human
Protocol: (§4) Cells were harvested and lysed using RIPA buffer containing 50 mM HEPES (pH 7.4), 1% Triton X-100, 2 mM EDTA, 150 mM NaCl, 2.5 mM NaF, 5 mM Na3VO4, and protease inhibitor cocktail tablet (Roche, # 11–878-580–001). Proteins were separated and transferred to an NC membrane. The membranes were blocked using 5% skim milk in TBS-T buffer. The p-c-KIT (Tyr703, # 3073), p-AKT (Ser473, # 9271), p-ERK (Thr202/Tyr204, # 8544), ERK (# 4695), p-PLCγ (Tyr783, # 14008), p-STAT3 (Tyr705, # 4074), and PARP (# 9542) antibodies were obtained from Cell Signaling Technologies. The β-actin (# sc-47778) and STAT3 (# sc-482) antibodies were obtained from Santa Cruz Biotechnology. AKT (A18120) antibody was purchased from ABclonal. Each primary antibody was incubated overnight at 4 °C. The secondary antibody (GenDEPOT) was incubated for 1 h at room temperature. Proteins were detected using ECL substrate.

[25] = test system: c-KIT auto-phosphorylation in HMC1.2 cells; assay: Western blot of c-KIT signaling; assay type: cell-based, human; conditions: 10 μM
Protocol: as §4

[26] = test system: GIST-T1 cells; assay: Cell viability assay (CellTiter-Glo); assay type: cell-based; conditions: Homo sapiens, GISTT1; 72 h; concentration causing half-maximal growth inhibition
Protocol: as §1, §2

## Cc1ccc(NC(=O)c2ccc(CN3CCN(C)CC3)c(C(F)(F)F)c2)cc1-c1cnc2sc(N)nc2c1 [6r]
[1]
  GI50: 8.06 ± 0.57 µM
[2]
  G0/G1 arrest compared with imatinib: more strongly
[3]
  GI50: 1150 ± 960 nM
[4]
  inhibition at 1 µM: 0%
[5]
  inhibition at 1 µM: 15.1%
[6]
  inhibition at 1 µM: 14.7%
[7]
  inhibition at 1 µM: 1.5%
[8]
  inhibition at 1 µM: 11.7%
[9]
  inhibition at 1 µM: 0.2%
[10]
  inhibition at 1 µM: 8.7%
[11]
  inhibition at 1 µM: 4.8%
[12]
  inhibition at 1 µM: 13.6%
[13]
  inhibition at 1 µM: 8.5%
[14]
  inhibition at 1 µM: 63.7%
[15]
  inhibition at 1 µM: 0%
[16]
  inhibition at 1 µM: 0%
[17]
  inhibition at 1 µM: 98.3%
[18]
  inhibition at 1 µM: 7.8%
[19]
  inhibition at 1 µM: 9.9%
[20]
  inhibition at 1 µM: 0%
[21]
  inhibition at 1 µM: 7.4%
[22]
  inhibition at 1 µM: 73.9%
[23]
  inhibition at 1 µM: 68.7%
[24]
  levels of phosphorylated c-KIT (Tyr703) and downstream mediators p-AKT, p-ERK, p-PLCγ, p-STAT3: remarkably inhibited
[25]
  c-KIT auto-phosphorylation: completely inhibited
[26]
  GI50: 10 nM
